Results on 18 compounds are retold here after PubChem BioAssay AID330 (DTP/NCI, 2004).

The assay concerns P388 leukemia ip, CD2F1 mice, survival T/C. Kind of assay: NCI In Vivo Anticancer Drug Screen. Data for tumor model P388 Leukemia (intraperitoneal) in CD2F1 (CDF1) mice. Conditions: endpoint: median survival time, higher = longer survival. The essentials: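 Mice carrying the transplanted tumor received test compound or vehicle. Survival was recorded in each group, and the value is the treated-group measurement divided by that of the vehicle-treated control group.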

[1] abbreviates: dose: 50.0 mg/kg/injection, schedule: Q01DX009 (ip), vehicle: saline.
Setting [2] is: dose: 100.0 mg/kg/injection, schedule: Q01DX009 (ip), vehicle: saline.
Setting [3] is: dose: 200.0 mg/kg/injection, schedule: Q01DX009 (ip), vehicle: saline.
The mark [4] stands for this setting: dose: 50.0 mg/kg/injection, schedule: Q01DX005 (ip), vehicle: saline with Tween-80.
Setting [5] is: dose: 100.0 mg/kg/injection, schedule: Q01DX005 (ip), vehicle: saline with Tween-80.
The mark [6] stands for this setting: dose: 200.0 mg/kg/injection, schedule: Q01DX005 (ip), vehicle: saline with Tween-80.
Setting [7] is: dose: 50.0 mg/kg/injection, schedule: Q01DX005 (ip), vehicle: Klucel (hydroxypropylcellulose) (HPC).
[8] abbreviates: dose: 100.0 mg/kg/injection, schedule: Q01DX005 (ip), vehicle: Klucel (hydroxypropylcellulose) (HPC).
[9] abbreviates: dose: 200.0 mg/kg/injection, schedule: Q01DX005 (ip), vehicle: Klucel (hydroxypropylcellulose) (HPC).
The mark [10] stands for this setting: dose: 50.0 mg/kg/injection, schedule: Q01DX009 (ip), vehicle: saline with Tween-80.
Setting [11] is: dose: 100.0 mg/kg/injection, schedule: Q01DX009 (ip), vehicle: saline with Tween-80.

“And” between values parts separate entries of the source, which are not always exact repeats. Equal values may be shown once. Inconclusive results and toxic doses are left out.

For `CNC(=S)N/N=C(C)\C=N/Nc1cccc(Cl)c1`, the T/C was 92 % of control (dose: 100.0 mg/kg/injection, schedule: Q04DX003 (ip), vehicle: saline); 93 % of control (dose: 200.0 mg/kg/injection, schedule: Q04DX003 (ip), vehicle: saline); 100 % of control (dose: 400.0 mg/kg/injection, schedule: Q04DX003 (ip), vehicle: saline).

Take `CC(Nc1ccc(Cl)cc1)S(=O)(=O)O` (stereo not drawn): the T/C by setting is: under setting [1], 106 % of control; under setting [2], 100 % of control; under setting [3], 106 % of control.

Consider `N#CC(C#N)=C1SCCCS1`, for which the T/C reads like this: under setting [1], 105 % of control; under setting [2], 95 % of control; under setting [3], 98 % of control.

In the case of `O=C(O)CS(=O)(=O)Cc1ccc(Cl)cc1Cl`, the T/C is 103 % of control (dose: 60.0 mg/kg/injection, schedule: Q01DX005 (ip), vehicle: suspension in saline); 112 % of control (dose: 120.0 mg/kg/injection, schedule: Q01DX005 (ip), vehicle: suspension in saline); 96 % of control (dose: 240.0 mg/kg/injection, schedule: Q01DX005 (ip), vehicle: suspension in saline).

On to `N#CC(c1c(Cl)cccc1N1CCCCC1)N1CCCCC1` (stereo not drawn), for which the T/C was 108 % of control under setting [4], 104 % of control under setting [5] and 100 % of control under setting [6].

Take `COC(=O)c1cc(=O)n(C)[nH]1`: the T/C reads like this: under setting [7], 104 % of control; under setting [8], 105 % of control; under setting [9], 98 % of control.

For the compound `CNC(=O)OCc1c(COC(=O)NC)c(-c2ccccc2)n2c1CCC2`, the T/C reads like this: (dose: 50.0 mg/kg/injection, schedule: Q01DX009 (ip), vehicle: Klucel (hydroxypropylcellulose) (HPC)) 124 % of control; (dose: 100.0 mg/kg/injection, schedule: Q01DX009 (ip), vehicle: Klucel (hydroxypropylcellulose) (HPC)) 124 % of control.

`CCC[CH2][Sn]([CH2]CCC)([CH2]CCN(C)C)[CH2]CCN(C)C`: the T/C under setting [10] was 97 % of control and the T/C under setting [11] is 104 % of control.

For the compound `COc1cccc2c1C(=O)c1c(O)c3c(c(O)c1C2=O)C[C@@](O)(/C(CO)=N/NC(=O)c1ccccc1)C[C@@H]3OC1CC(N)C(O)C(C)O1` (stereo partly drawn), the T/C runs as follows: (dose: 0.12 mg/kg/injection, schedule: Q01DX009 (ip), vehicle: water) 103 % of control; (dose: 0.25 mg/kg/injection, schedule: Q01DX009 (ip), vehicle: water) 99 % of control; (dose: 0.5 mg/kg/injection, schedule: Q01DX009 (ip), vehicle: water) 150 % of control; (dose: 0.8 mg/kg/injection, schedule: Q01DX009 (ip), vehicle: saline) 112 % of control; (dose: 1.0 mg/kg/injection, schedule: Q01DX009 (ip), vehicle: water) 154 % of control and 169 % of control; (dose: 1.4 mg/kg/injection, schedule: Q01DX009 (ip), vehicle: saline) 112 % of control. The T/C (dose: 2.0 mg/kg/injection, schedule: Q01DX009 (ip), vehicle: water) was 154 % of control and 171 % of control and 190 % of control; the T/C (dose: 2.3 mg/kg/injection, schedule: Q01DX009 (ip), vehicle: saline) is 113 % of control; the T/C (dose: 3.9 mg/kg/injection, schedule: Q01DX009 (ip), vehicle: saline) was 118 % of control; the T/C (dose: 4.0 mg/kg/injection, schedule: Q01DX009 (ip), vehicle: water) was 172 % of control and 180 % of control and 212 % of control; the T/C (dose: 6.0 mg/kg/injection, schedule: Q04DX003 (ip), vehicle: water) is 96 % of control; the T/C (dose: 8.0 mg/kg/injection, schedule: Q01DX009 (ip), vehicle: water) was 201 % of control and 230 % of control and 390 % of control. The T/C (dose: 8.6 mg/kg/injection, schedule: Q01DX009 (ip), vehicle: saline) is 163 % of control; the T/C (dose: 10.8 mg/kg/injection, schedule: Q01DX009 (ip), vehicle: saline) is 187 % of control; the T/C (dose: 18.0 mg/kg/injection, schedule: Q01DX009 (ip), vehicle: saline) is 90 % of control; the T/C (dose: 96.0 mg/kg/injection, schedule: Q04DX003 (ip), vehicle: water) was 114 % of control.

`N#CC(c1ccc2c(c1)OCO2)N1CCCC1` (stereo not drawn): the T/C runs as follows: (dose: 12.5 mg/kg/injection, schedule: Q01DX001 (ip), vehicle: Klucel (hydroxypropylcellulose) (HPC)) 108 % of control; (dose: 25.0 mg/kg/injection, schedule: Q01DX001 (ip), vehicle: Klucel (hydroxypropylcellulose) (HPC)) 108 % of control; (dose: 100.0 mg/kg/injection, schedule: Q01DX001 (ip), vehicle: Klucel (hydroxypropylcellulose) (HPC)) 100 % of control; (dose: 400.0 mg/kg/injection, schedule: Q01DX001 (ip), vehicle: Klucel (hydroxypropylcellulose) (HPC)) 99 % of control.

For `Cc1ccc(OCC2CO2)c(Br)c1` (stereo not drawn), the T/C (dose: 25.0 mg/kg/injection, schedule: Q01DX005 (ip), vehicle: saline with Tween-80) is 101 % of control and 104 % of control; the T/C under setting [4] is 100 % of control and 106 % of control (2×); the T/C under setting [5] was 101 % of control and 96 % of control; the T/C under setting [6] is 101 % of control and 105 % of control and 111 % of control.

As for `Nc1ccc2cc3ccc(N)cc3nc2c1`, the T/C runs as follows: (dose: 12.5 mg/kg/injection, schedule: Q01DX009 (ip), vehicle: saline) 122 % of control; (dose: 15.0 mg/kg/injection, schedule: Q01DX005 (ip), vehicle: saline) 109 % of control; under setting [1], 95 % of control; (dose: 50.0 mg/kg/injection, schedule: Q04DX003 (ip), vehicle: saline) 86 % of control.

Regarding `CCOC(=O)C1(Br)CCCCC1`, the T/C under setting [10] was 109 % of control; the T/C under setting [11] was 111 % of control; the T/C (dose: 200.0 mg/kg/injection, schedule: Q01DX009 (ip), vehicle: saline with Tween-80) was 103 % of control.

As for `CSC(=S)N1CC(=O)N(C(=S)SC)CC1=O`, the T/C is 87 % of control under setting [7], 92 % of control under setting [8] and 86 % of control under setting [9].

As to `CN=C1SC(C)(C)NN1C`, the T/C (dose: 12.5 mg/kg/injection, schedule: Q01DX005 (ip), vehicle: Klucel (hydroxypropylcellulose) (HPC)) was 104 % of control; the T/C (dose: 25.0 mg/kg/injection, schedule: Q01DX005 (ip), vehicle: Klucel (hydroxypropylcellulose) (HPC)) is 104 % of control; the T/C under setting [7] was 101 % of control and 114 % of control.

Regarding `O=C(O)c1c(Cl)c(Cl)c(Cl)c(Cl)c1-c1c2cc(Br)c(=O)c(Br)c-2oc2c(Br)c(O)c(Br)cc12`, the T/C is 89 % of control under setting [4] and 90 % of control under setting [5].

Regarding `N/C(=N\OC(=O)NC(Cl)=C(Cl)Cl)c1cc(C(F)(F)F)cc(C(F)(F)F)c1`, the T/C is 102 % of control under setting [4], 102 % of control under setting [5] and 100 % of control under setting [6].

Regarding `CSc1ncnc2c1ncn2C1OC(CO)C(O)OC1O` (stereo not drawn), the T/C by setting is: (dose: 16.5 mg/kg/injection, schedule: Q01DX009 (ip), vehicle: saline with Tween-80) 122 % of control; (dose: 50.0 mg/kg/injection, schedule: Q04DX003 (ip), vehicle: saline with Tween-80) 109 % of control; (dose: 66.0 mg/kg/injection, schedule: Q04DX003 (ip), vehicle: saline with Tween-80) 112 % of control; (dose: 100.0 mg/kg/injection, schedule: Q04DX003 (ip), vehicle: saline with Tween-80) 108 % of control.
